Measured values as given in US9493411B2 (AbbVie Inc., priority 2013, dated 2016).

What was measured:
BRD4 (BDI_K57-E168) = target: T1, BRD4 (BDI_K57-E168) (Homo sapiens, UniProt O60885); test: TR-FRET bromodomain binding assay, BRD4 first bromodomain; conditions: His-tagged BD1, Alexa647-labeled probe 100 nM; Ki calculated from IC50
T1 construct: BD1: amino acids K57-E168; made in house
Protocol: (§1) A time-resolved fluorescence resonance energy transfer (TR-FRET) assay was used to determine the affinities of compounds of the Examples listed in Table 1 for each bromodomain of BRD4. His-tagged first (BD1: amino acids K57-E168) and second (BD2: amino acids E352-E168) bromodomains of BRD4 were expressed and purified. An Alexa647-labeled BET-inhibitor was used as the fluorescent probe in the assay.
(§2) Compound dilution series were prepared in DMSO via a 3-fold serial dilution from 2.5 mM to 42 nM. Compounds were then diluted 6:100 in assay buffer (20 mM Sodium Phosphate, pH 6.0, 50 mM NaCl, 1 mM Ethylenediaminetetraacetic acid disodium salt dihydrate, 0.01% Triton X-100, 1 mM DL-Dithiothreitol) to yield 3× working solutions. Six microliters (μL) of the working solution was then transferred to white, low-volume assay plates (Costar #3673). A 1.5× assay mixture containing His-tagged bromodomain, Europium-conjugated anti-His antibody (Invitrogen PV5596) and the Alexa-647-conjugated probe molecule was also prepared. Twelve μL of this solution were added to the assay plate to reach a final volume of 18 μL. The final concentration of 1× assay buffer contains 2% DMSO, 50 μM-0.85 nM compound, 8 nM His-tagged bromodomain, 1 nM Europium-conjugated anti-His-tag antibody and 100 nM or 30 nM probe (for BDI or BDII, respectively). After a one-hour incubation at room temperature, TR-FRET ratios were determined using an Envision multilabel plate reader (Ex 340, Em […]).
(§3) TR-FRET data were normalized to the means of 24 no-compound controls (“high”) and 8 controls containing 1 μM un-labeled probe (“low”). Percent inhibition was plotted as a function of compound concentration and the data were fit with the 4 parameter logistic equation to obtain IC50s. Inhibition constants (Ki) were calculated from the IC50s, probe Kd and probe concentration. Typical Z′ values were between 0.65 and 0.75. The minimum significant ratio was determined to evaluate assay reproducibility (Eastwood et al., (2006) J Biomol Screen, 11: 253-261). The MSR was determined to be 2.03 for BDI and 1.93 for BDII, and a moving MSR (last six run MSR overtime) for both BDI and BDII was typically <3.

BRD4 (BDII_E352-M457) = target: T2, BRD4 (BDII_E352-M457) (Homo sapiens, UniProt O60885); test: TR-FRET bromodomain binding assay, BRD4 second bromodomain; conditions: His-tagged BD2, Alexa647-labeled probe 30 nM; Ki calculated from IC50
T2 construct: made in house
Protocol: as §1, §2, §3

Row | Compound | Ki (BRD4 (BDI_K57-E168)) | Ki (BRD4 (BDII_E352-M457))
1 | Cc1[nH]c(-c2ccccc2NS(=O)(=O)CCC(F)(F)F)cc1C(N)=O [Example 82, 2-methyl-5-(2-{[(3,3,3-trifluoropropyl)sulfonyl]amino}phenyl)-1H-pyrrole-3-carboxamide] | 2.96 µM | 8.72 µM
2 | Cc1[nH]c(-c2ccccc2NCc2ccc(Cl)c(Cl)c2)cc1C(N)=O [Example 33, 5-{2-[(3,4-dichlorobenzyl)amino]phenyl}-2-methyl-1H-pyrrole-3-carboxamide] | 9.63 µM | 13.1 µM
3 | Cc1n[nH]c(C)c1-c1ccc(-c2cc(C(N)=O)c(C)[nH]2)cc1 [Example 112, 5-[4-(3,5-dimethyl-1H-pyrazol-4-yl)phenyl]-2-methyl-1H-pyrrole-3-carboxamide] | 5.43 µM | 4.31 µM
4 | Cc1[nH]c(-c2ccc(-c3ccc(NS(C)(=O)=O)cc3)cc2)cc1C(N)=O [Example 110, 2-methyl-5-{4′-[(methylsulfonyl)amino]biphenyl-4-yl}-1H-pyrrole-3-carboxamide] | 4.03 µM | 5.9 µM
5 | Cc1[nH]c(-c2ccc(-c3cccc(N4CCOCC4)c3)cc2)cc1C(N)=O [Example 105, 2-methyl-5-[3′-(morpholin-4-yl)biphenyl-4-yl]-1H-pyrrole-3-carboxamide] | 6.78 µM | 5.34 µM
6 | Cc1[nH]c(-c2ccccc2Oc2ccc(C3CCCC3)cc2)cc1C(N)=O [Example 124, 5-[2-(4-cyclopentylphenoxy)phenyl]-2-methyl-1H-pyrrole-3-carboxamide] | 4.6 µM | 13.1 µM
7 | 2-methyl-5-[2-(pyridin-2-yloxy)phenyl]-1H-pyrrole-3-carboxamide [Example 131] | 9.4 µM | 22.2 µM
8 | Cc1[nH]c(-c2ccc(-c3ccc(C(=O)N(C)C)cc3)cc2)cc1C(N)=O [Example 108, 5-[4′-(dimethylcarbamoyl)biphenyl-4-yl]-2-methyl-1H-pyrrole-3-carboxamide] | 11 µM | 4.49 µM
9 | Cc1[nH]c(-c2ccc(-c3ccc4ncccc4c3)cc2)cc1C(N)=O [Example 113, 2-methyl-5-[4-(quinolin-6-yl)phenyl]-1H-pyrrole-3-carboxamide] | 4.64 µM | 4.22 µM
10 | Cc1[nH]c(-c2ccc(-c3ccoc3)cc2)cc1C(N)=O [Example 100, 5-[4-(furan-3-yl)phenyl]-2-methyl-1H-pyrrole-3-carboxamide] | 8.36 µM | 5.32 µM
11 | Cc1[nH]c(-c2ccc(-c3ccc(C(=O)N4CCN(C)CC4)cc3)cc2)cc1C(N)=O [Example 114, 2-methyl-5-{4′-[(4-methylpiperazin-1-yl)carbonyl]biphenyl-4-yl}-1H-pyrrole-3-carboxamide] | 3.96 µM | 3.68 µM
12 | Cc1[nH]c(-c2ccccc2NCc2cc(Br)cs2)cc1C(N)=O [Example 15, 5-(2-{[(4-bromothiophen-2-yl)methyl]amino}phenyl)-2-methyl-1H-pyrrole-3-carboxamide] | 2.58 µM | 2.31 µM
13 | Cc1[nH]c(-c2ccccc2NCc2ccc(C(F)(F)F)cc2)cc1C(N)=O [Example 28, 2-methyl-5-(2-{[4-(trifluoromethyl)benzyl]amino}phenyl)-1H-pyrrole-3-carboxamide] | 9.45 µM | 13.6 µM
14 | Cc1[nH]c(-c2ccccc2N)cc1C(N)=O [Example 1, 5-(2-aminophenyl)-2-methyl-1H-pyrrole-3-carboxamide] | 2.54 µM | 6.21 µM
15 | Cc1[nH]c(-c2ccccc2NS(=O)(=O)c2cccnc2)cc1C(N)=O [Example 80, 2-methyl-5-{2-[(pyridin-3-ylsulfonyl)amino]phenyl}-1H-pyrrole-3-carboxamide] | 9.39 µM | 13.4 µM
16 | COC(=O)CNC(=O)c1cc(-c2ccc(-c3c(C)noc3C)cc2)[nH]c1C [Example 94, methyl N-({5-[4-(3,5-dimethyl-1,2-oxazol-4-yl)phenyl]-2-methyl-1H-pyrrol-3-yl}carbonyl)glycinate] | 4.82 µM | 21.5 µM
17 | CC(=O)Nc1ccc(-c2cc(C(N)=O)c(C)[nH]2)cc1 [Example 10, 5-[4-(acetylamino)phenyl]-2-methyl-1H-pyrrole-3-carboxamide] | 3.47 µM | 5.57 µM

Stronger by Ki (BRD4 (BDI_K57-E168)), values ahead:

Row | Ki (BRD4 (BDI_K57-E168)) | Ki (BRD4 (BDII_E352-M457)) | Compound
18 | 0.48 µM | 16.5 µM | Cc1[nH]c(-c2ccccc2NCC2CCN(C(=O)OC(C)(C)C)CC2)cc1C(N)=O [Example 41, tert-butyl 4-({[2-(4-carbamoyl-5-methyl-1H-pyrrol-2-yl)phenyl]amino}methyl)piperidine-1-carboxylate]
19 | 1 µM | 2.03 µM | Cc1[nH]c(-c2cccc3cc[nH]c23)cc1C(N)=O [Example 164, 5-(1H-indol-7-yl)-2-methyl-1H-pyrrole-3-carboxamide]
20 | 0.912 µM | 2.81 µM | Cc1[nH]c(-c2cccc3[nH]cnc23)cc1C(N)=O [Example 163, 5-(1H-benzimidazol-4-yl)-2-methyl-1H-pyrrole-3-carboxamide]
21 | 1.06 µM | 1.19 µM | Cc1ccccc1CNc1ccccc1-c1cc(C(N)=O)c(C)[nH]1 [Example 24, 2-methyl-5-{2-[(2-methylbenzyl)amino]phenyl}-1H-pyrrole-3-carboxamide]
22 | 1.19 µM | 3.29 µM | Cc1cc(CNc2ccccc2-c2cc(C(N)=O)c(C)[nH]2)oc1C [Example 20, 5-(2-{[(4,5-dimethylfuran-2-yl)methyl]amino}phenyl)-2-methyl-1H-pyrrole-3-carboxamide]
23 | 2.13 µM | 3.31 µM | CC(=O)Nc1ccc(CN(CC2CCCC2)c2ccccc2-c2cc(C(N)=O)c(C)[nH]2)cc1 [Example 59, 5-(2-{[4-(acetylamino)benzyl](cyclopentylmethyl)amino}phenyl)-2-methyl-1H-pyrrole-3-carboxamide]
24 | 0.0591 µM | 0.754 µM | Cc1[nH]c(-c2cc(NS(C)(=O)=O)ccc2Oc2ccccc2)cc1C(N)=O [Example 162, 2-methyl-5-{5-[(methylsulfonyl)amino]-2-phenoxyphenyl}-1H-pyrrole-3-carboxamide]
25 | 0.595 µM | 7.49 µM | CCOC(=O)Cc1ccc(OCc2ccccc2)c(-c2cc(C(N)=O)c(C)[nH]2)c1 [Example 165, ethyl [4-(benzyloxy)-3-(4-carbamoyl-5-methyl-1H-pyrrol-2-yl)phenyl]acetate]
26 | 0.331 µM | 3.35 µM | Cc1[nH]c(-c2c(N)cccc2Oc2ccccc2)cc1C(N)=O [Example 91, 5-(2-amino-6-phenoxyphenyl)-2-methyl-1H-pyrrole-3-carboxamide]
27 | 0.172 µM | 0.983 µM | Cc1[nH]c(-c2ccccc2Nc2ccccc2)cc1C(N)=O [Example 77, 2-methyl-5-[2-(phenylamino)phenyl]-1H-pyrrole-3-carboxamide]
28 | 1.4 µM | 6.23 µM | Cc1[nH]c(-c2ccccc2NCc2ccc(C#N)cc2)cc1C(N)=O [Example 31, 5-{2-[(4-cyanobenzyl)amino]phenyl}-2-methyl-1H-pyrrole-3-carboxamide]
29 | 0.86 µM | 7.53 µM | Cc1[nH]c(-c2ccccc2NCC2CC2)cc1C(N)=O [Example 26, 5-{2-[(cyclopropylmethyl)amino]phenyl}-2-methyl-1H-pyrrole-3-carboxamide]
30 | 1.48 µM | 1.82 µM | Cc1[nH]c(-c2ccccc2Oc2ccccc2Cc2ccccc2)cc1C(N)=O [Example 138, 5-[2-(2-benzylphenoxy)phenyl]-2-methyl-1H-pyrrole-3-carboxamide]
31 | 0.182 µM | 0.639 µM | Cc1[nH]c(-c2ccccc2Oc2ccc(Cl)cc2)cc1C(N)=O [Example 116, 5-[2-(4-chlorophenoxy)phenyl]-2-methyl-1H-pyrrole-3-carboxamide]
32 | 1.76 µM | 6.15 µM | Cc1[nH]c(-c2ccccc2NC2CCC2)cc1C(N)=O [Example 66, 5-[2-(cyclobutylamino)phenyl]-2-methyl-1H-pyrrole-3-carboxamide]
33 | 1.85 µM | 7.12 µM | Cc1[nH]c(-c2ccccc2Br)cc1C(N)=O [Example 115, 5-(2-bromophenyl)-2-methyl-1H-pyrrole-3-carboxamide]
34 | 0.526 µM | 1.65 µM | Cc1[nH]c(-c2ccccc2NC2CCc3ccccc3C2)cc1C(N)=O (stereo not shown) [Example 74, 2-methyl-5-[2-(1,2,3,4-tetrahydronaphthalen-2-ylamino)phenyl]-1H-pyrrole-3-carboxamide]
35 | 0.109 µM | 0.658 µM | Cc1[nH]c(-c2cc(N)ccc2Oc2ccccc2)cc1C(N)=O [Example 161, 5-(5-amino-2-phenoxyphenyl)-2-methyl-1H-pyrrole-3-carboxamide]
